Patent US20240252689A1, “POLY-ADP RIBOSE (PAR) TRACKER OPTIMIZED SPLIT-PROTEIN REASSEMBLY PAR DETECTION REAGENTS” (THE BOARD OF REGENTS OF THE UNIVERSITY OF TEXAS SYSTEM, priority 2021, published 2024)

What was measured:
[1] = tested on: PARylation; assay: PAR-T luminescence in MDA-MB-231-luc xenograft tumors; assay type: in vivo; conditions: xenograft tumors in mice
Experimental: In the next experiment, the utility of luminescent PAR-T sensor to measure the levels of PARylation in vivo was tested. Xenograft tumors were established using the MDA-MB-231-luc cells the expression of PAR-T was induced by doxycycline (FIG. 5A). […] The luminescence from PAR-T was normalized to the firefly luminescence to confidently measure the differences in PARylation, while accounting for the variability in tumor sizes.

[2] = tested on: PARylation; assay: Recombinant PAR-T sensors incubated with lysates from treated Hela cells; assay type: cell-based
Experimental: (§1) Cells were treated with various inhibitors as described herein. For inhibition of nuclear PARPs, cells were treated with PJ-34 ([…]; Enzo, ALX-270) or Olaparib (20 µM; MedChem Express, HY-10162) for 2 hours. For inhibition of PARG, cells were treated with PDD 00017273 (20 µM; MedChem Express, HY-108360) for 2 hours. For UV-induced DNA damage, the cells were harvested 15 minutes after treatment with 50 mJ/cm2 UV irradiation.
Cells were cultured and treated as described above before the preparation of cell extracts. […]
Dimerization-dependent GFP is a genetically encoded sensor that was initially developed to study protein interactions. In this system, a pair of a quenched GFP (ddGFPA) and a non-fluorogenic GFP (ddGFPB) form a heterodimer that can result in improved fluorescence. In this example, a ddGFP-based fluorescence sensor (fluorescent PAR-Trackers or PAR-T) was designed to allow for live cell imaging, with high signal-noise ratio. To achieve this, the various ADPR reader domains (ARBDs) were fused to ddGFP-A/B and purified as recombinant proteins (FIG. 1A, FIG. 1B, FIG. 6A). […] Similarly, degradation of PAR chains by ARH3 was detected in a time (FIG. 1F and FIG. 1G) and dose (FIG. 6H) dependent way. […]

[3] = tested on: PARP-1 activation; assay: Live-cell luminescence assay with PAR-T NanoLuc, UV-induced PARP-1 activation in MDA-MB-231-Luc cells; assay type: cell-based, human; conditions: for time-dependent, UV-mediated increase in PAR-T NanoLuc signal (PARP-1 activation): time course after UV radiation, 20 μM for 2 hr prior to UV
Experimental: Each point in the graph represents the mean±SEM of the relative levels of luminescence from PAR-T NanoLuc normalized to full Nano luciferase (n=3).
FIG. 11B provides quantitative analysis of Western blot analysis and bioluminescence imaging (shown in FIG. 4B) of 231-PAR-T NanoLuc cells treated with 20 μM Niraparib or 20 μM PARG inhibitor for 2 hr prior to UV radiation. Each bar in the graph represents the mean±SEM of the relative intensities (n=3, one-way ANOVA, *p<0.05, **p<0.001, and ***p<0.0001; ns=not significant).
as §1
DNA damaging agents such as UV irradiation and y irradiation activate PARP-1 and cause PARylation of itself and other DNA damage repair proteins that are recruited to the damage sites. […] MDA-MB-231-Luc cells were subjected to doxycycline-induced expression of PAR-T, and then treated UV radiation. […] In a similar manner, a time course of UV-mediated PARP-1 activation using live cell luminescence assay with the PAR-T NanoLuc sensor was performed. The MDA-MB-231 cells were subjected to Dox-induced expression of PAR-T NanoLuc or intact Nano luciferase and then exposed the cells to UV radiation.
Next, a set of assays was performed to compare the performance of the PAR-T sensors to conventional PAR detection reagents (WWE-Fc and PAR antibody) in a variety of assays. The following assays were compared (1) Western blotting with WWE-Fc versus fluorescence assay with PAR-T ddGFP, which were performed in conjunction with ARH3-mediated degradation of PAR in vitro (FIG. 11A); (2) Western blotting with WWE-Fc versus live-cell luciferase assay using PAR-T NanoLuc, which were performed in conjunction with UV-induced DNA damage in MDA-MB-231 cells (FIG. 11B); (3) enzyme-linked immunosorbent assay (ELISA) with PAR antibody versus fluorescence assay with PAR-T ddGFP, which were performed using immobilized PAR (FIG. 11C); and (4) immunofluorescence with WWE-Fc versus live-cell imaging using PAR-T ddGFP, which were performed using H2O2-mediated PARP-1 activation in 293T cells (FIG. 11D and FIG. 11E).

[4] = tested on: PAR accumulation; assay: Time course of PAR-T NanoLuc bioluminescence of breast cancer cells injected into mice; assay type: in vivo, C57/BL6 mice; conditions: 24-hr time course post injection
From the text: FIGS. 5D to 5E show analysis of a time course of bioluminescence imaging of 231-PAR-T NanoLuc cells transplanted into mice and treated with PARG inhibitor. Bioluminescence imaging (5D) with the region of interest expanded (5E). Each point in the graph in (5F) represents the mean±SEM of the relative levels of luminescence of NanoLuc of PAR-T NanoLuc (n=4).
PAR accumulation in breast cancer cells injected into C57/BL6 mice without establishing xenograft tumors over a 24-hr time course post injection, with or without PARG inhibitor treatment (FIG. 5D, FIG. 5E and FIG. 5F) was measured. PAR accumulation was readily detected in the breast cancer cells injected into the mice in the absence of treatment.

[5] = tested on: PARylation; assay: Live cell imaging of 3D cancer spheroids of MCF7 cells expressing PAR-T ddGFP; assay type: cell-based; conditions: for distribution of PARylation (PAR) throughout the spheroid: MCF7 3D cancer spheroids
Experimental: FIGS. 8C and 8D provides representative images (8C) and quantification (8D) of Z-projections of cancer spheroids formed using MCF-7 cells subjected to Dox-induced expression of the PAR-T ddGFP. The spheroids were treated with 20 µM Niraparib and live-cell imaging was performed at the indicated times. (Left) The spheroids were divided into ‘outer’ and ‘core’ sections for quantification as indicated by the white circles. (Right) Enlargement of the indicated areas from the left panels (yellow, core; pink, outer) as indicated.
Cancers are heterogenous tissues with spatial variation in nutrient availability, and stress. Since PARylation is enhanced by stressors such as DNA damage, another experiment tested whether there was any spatial variation in PARylation levels. Live cell imaging was performed in 3D cancer spheroids using MCF7 cells expressing the WWE based PAR-T sensors. […] A time course of Niraparib treatment in 3D cancer spheroids was performed to visualize spatio-temporal changes in PAR levels over time.

Compound | PARylation detected by PAR-T luminescence normalized to firefly luminescence [1] | fluorescence of recombinant PAR-T sensors with cell lysates ([2]; lysates from cells treated with both H2O2 and PARG inhibitor) | fluorescence of recombinant PAR-T sensors with cell lysates ([2]; lysates from treated Hela cells) | PAR-T luminescence ([3]; UV radiation of treated cells) | time-dependent, UV-mediated increase in PAR-T NanoLuc signal (PARP-1 activation) [3] | luminescence from PAR-T NanoLuc [4] | distribution of PARylation (PAR) throughout the spheroid ([5]; WWE based PAR-T sensors, 20 uM Niraparib) | decrease in PAR-T NanoLuc signal ([3]; UV-treated cells pre-treated with compound, versus basal) | decrease in PAR-T NanoLuc signal ([3]; basal (-UV) conditions, 20 μM, 2 hr) [%] | distribution of PARylation (PAR) throughout the spheroid [5] | PAR levels in cells at the core versus outer layer of the spheroid ([5]; time course, 20 µM Niraparib)
PDD 00017273 [PARG inhibitor] | increase in PARylation | pronounced increase in fluorescence | increase in fluorescence | enhanced PAR-T luminescence | more spontaneous | increased significantly by 6 hr and then diminished by 24 hr |  |  |  |  | 
O=C(c1cc(Cc2n[nH]c(=O)c3ccccc23)ccc1F)N1CCN(C(=O)C2CC2)CC1 [olaparib, Olaparib] |  |  |  |  |  |  | inhibited |  |  |  | 
NC(=O)c1cccc2cn(-c3ccc([C@@H]4CCCNC4)cc3)nc12 [Niraparib] |  |  |  |  | but not in Niraparib-treated cells |  |  | greater | 50 | inhibited | relatively resistant
